Experimental data: PubChem BioAssay AID1918957 (Molecular Pharmacology Branch, DTP, NCI, 2023)

Test system: NCI-H1876 complex spheroid viability
Experiment: Anticancer human tumor NCI-H1876 cell line growth inhibition [LSD1];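 further: spheroids exposed to compounds for one week before readout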;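 on viability, T/C: 100% = DMSO vehicle-treated spheroids so lower means fewer viable cells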
Conditions: for IC50: curve of first compound; for viability, T/C: stronger effect = lower value; active means viability on the fitted dose curve at most 10% of control; inactive means the rest
Outline: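 Drug combinations with the LSD1 inhibitor iadademstat tested on tumor cells co-cultured as spheroids with endothelial cells and mesenchymal stem cells. Concentrations descended in half-log increments from clinical Cmax or 10 microM.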

[1] = second compound 0.1 µM, first compound 0.00316 µM
[2] = second compound 0.1 µM, first compound 0.01 µM
[3] = second compound 0.1 µM, first compound 0.0316 µM
[4] = second compound 0.1 µM, first compound 0.1 µM
[5] = second compound 0.316 µM, first compound 0.00316 µM
[6] = second compound 0.316 µM, first compound 0.01 µM
[7] = second compound 0.316 µM, first compound 0.0316 µM
[8] = second compound 0.316 µM, first compound 0.1 µM
[9] = second compound 1 µM, first compound 0.00316 µM
[10] = second compound 1 µM, first compound 0.01 µM
[11] = second compound 1 µM, first compound 0.0316 µM
[12] = second compound 1 µM, first compound 0.1 µM
[13] = second compound 3.16 µM, first compound 0.00316 µM
[14] = second compound 3.16 µM, first compound 0.01 µM
[15] = second compound 3.16 µM, first compound 0.0316 µM
[16] = second compound 3.16 µM, first compound 0.1 µM
[17] = second compound 10 µM, first compound 0.00316 µM
[18] = second compound 10 µM, first compound 0.01 µM
[19] = second compound 10 µM, first compound 0.0316 µM
[20] = second compound 10 µM, first compound 0.1 µM
[21] = second compound 0.1 µM, first compound 0.00949 µM
[22] = second compound 0.1 µM, first compound 0.03 µM
[23] = second compound 0.1 µM, first compound 0.0949 µM
[24] = second compound 0.1 µM, first compound 0.3 µM
[25] = second compound 0.1 µM, first compound 0.949 µM
[26] = second compound 0.1 µM, first compound 3 µM
[27] = second compound 0.316 µM, first compound 0.00949 µM
[28] = second compound 0.316 µM, first compound 0.03 µM
[29] = second compound 0.316 µM, first compound 0.0949 µM
[30] = second compound 0.316 µM, first compound 0.3 µM
[31] = second compound 0.316 µM, first compound 0.949 µM
[32] = second compound 0.316 µM, first compound 3 µM
[33] = second compound 1 µM, first compound 0.00949 µM
[34] = second compound 1 µM, first compound 0.03 µM
[35] = second compound 1 µM, first compound 0.0949 µM
[36] = second compound 1 µM, first compound 0.3 µM
[37] = second compound 1 µM, first compound 0.949 µM
[38] = second compound 1 µM, first compound 3 µM
[39] = second compound 3.16 µM, first compound 0.00949 µM
[40] = second compound 3.16 µM, first compound 0.03 µM
[41] = second compound 3.16 µM, first compound 0.0949 µM
[42] = second compound 3.16 µM, first compound 0.3 µM
[43] = second compound 3.16 µM, first compound 0.949 µM
[44] = second compound 3.16 µM, first compound 3 µM
[45] = second compound 10 µM, first compound 0.00949 µM
[46] = second compound 10 µM, first compound 0.03 µM
[47] = second compound 10 µM, first compound 0.0949 µM
[48] = second compound 10 µM, first compound 0.3 µM
[49] = second compound 10 µM, first compound 0.949 µM
[50] = second compound 10 µM, first compound 3 µM

COc1cc(Nc2ncc3c(n2)-c2ccc(Cl)cc2C(c2c(F)cccc2OC)=NC3)ccc1C(=O)O + NC1CCC(NC2CC2c2ccccc2)CC1
34.7 nM: IC50 (second compound 1 µM)
17.2 nM: IC50 (second compound 10 µM)
20 nM: IC50 (second compound 3.16 µM)
33.3 nM: IC50 (second compound 0.1 µM)
inactive: viability, T/C [1] 67.7% | viability, T/C [2] 59.1% | viability, T/C [3] 51.7% | viability, T/C [4] 39.5% | viability, T/C (second compound 0.1 µM, first compound 0.316 µM) 31.7% | viability, T/C (second compound 0.1 µM, first compound 1 µM) 25.7% | viability, T/C [5] 64.9% | viability, T/C [6] 52.9% | viability, T/C [7] 45.6% | viability, T/C [8] 37.6% | viability, T/C (second compound 0.316 µM, first compound 0.316 µM) 35% | viability, T/C (second compound 0.316 µM, first compound 1 µM) 23.7% | viability, T/C [9] 62.3% | viability, T/C [10] 57.5% | viability, T/C [11] 51.8% | viability, T/C [12] 40% | viability, T/C (second compound 1 µM, first compound 0.316 µM) 32.3% | viability, T/C (second compound 1 µM, first compound 1 µM) 19.9% | viability, T/C [13] 62.9% | viability, T/C [14] 52.1% | viability, T/C [15] 47.2% | viability, T/C [16] 41.2% | viability, T/C (second compound 3.16 µM, first compound 0.316 µM) 28.6% | viability, T/C (second compound 3.16 µM, first compound 1 µM) 22.1% | viability, T/C [17] 60.9% | viability, T/C [18] 52.7% | viability, T/C [19] 50.3% | viability, T/C [20] 33.2% | viability, T/C (second compound 10 µM, first compound 0.316 µM) 31.5% | viability, T/C (second compound 10 µM, first compound 1 µM) 22.5%
18.1 nM: IC50 (second compound 0.316 µM)

Cn1ncnc1C1c2n[nH]c(=O)c3cc(F)cc(c23)NC1c1ccc(F)cc1 (stereo not given) + NC1CCC(NC2CC2c2ccccc2)CC1
inactive: viability, T/C (second compound 0.1 µM, first compound 0.000316 µM) 99.3% | viability, T/C (second compound 0.1 µM, first compound 0.001 µM) 107% | viability, T/C [1] 96.6% | viability, T/C [2] 98.3% | viability, T/C [3] 91.7% | viability, T/C [4] 92% | viability, T/C (second compound 0.316 µM, first compound 0.000316 µM) 98% | viability, T/C (second compound 0.316 µM, first compound 0.001 µM) 114% | viability, T/C [5] 97.3% | viability, T/C [6] 103% | viability, T/C [7] 104% | viability, T/C [8] 82.8% | viability, T/C (second compound 1 µM, first compound 0.000316 µM) 107% | viability, T/C (second compound 1 µM, first compound 0.001 µM) 102% | viability, T/C [9] 102% | viability, T/C [10] 98% | viability, T/C [11] 95.8% | viability, T/C [12] 87.9% | viability, T/C (second compound 3.16 µM, first compound 0.000316 µM) 115% | viability, T/C (second compound 3.16 µM, first compound 0.001 µM) 117% | viability, T/C [13] 104% | viability, T/C [14] 100% | viability, T/C [15] 88.1% | viability, T/C [16] 104% | viability, T/C (second compound 10 µM, first compound 0.000316 µM) 104% | viability, T/C (second compound 10 µM, first compound 0.001 µM) 130% | viability, T/C [17] 114% | viability, T/C [18] 95% | viability, T/C [19] 100% | viability, T/C [20] 89.7%
> 100 nM: IC50 (second compound 0.1 µM) | IC50 (second compound 0.316 µM) | IC50 (second compound 1 µM) | IC50 (second compound 3.16 µM) | IC50 (second compound 10 µM)

NS(=O)(=O)OCC1CC(n2ccc3c(NC4CCc5ccccc54)ncnc32)CC1O (stereo not given) + NC1CCC(NC2CC2c2ccccc2)CC1
78 nM: IC50 (second compound 0.316 µM)
101 nM: IC50 (second compound 0.1 µM)
71.8 nM: IC50 (second compound 1 µM)
83 nM: IC50 (second compound 10 µM)
inactive: viability, T/C [21] 78.2% | viability, T/C [22] 60.1% | viability, T/C [23] 56.1% | viability, T/C [24] 36.6% | viability, T/C [25] 36.1% | viability, T/C [26] 31.7% | viability, T/C [27] 75.3% | viability, T/C [28] 60.5% | viability, T/C [29] 47.2% | viability, T/C [30] 39.4% | viability, T/C [31] 37.9% | viability, T/C [32] 31.4% | viability, T/C [33] 83.5% | viability, T/C [34] 62.3% | viability, T/C [35] 46.8% | viability, T/C [36] 35.1% | viability, T/C [37] 34.2% | viability, T/C [38] 30.1% | viability, T/C [39] 70.9% | viability, T/C [40] 57.9% | viability, T/C [41] 48.4% | viability, T/C [42] 35.9% | viability, T/C [43] 33.6% | viability, T/C [44] 28.8% | viability, T/C [45] 77.3% | viability, T/C [46] 63% | viability, T/C [47] 47.6% | viability, T/C [48] 37% | viability, T/C [49] 32.3% | viability, T/C [50] 24.4%
68.9 nM: IC50 (second compound 3.16 µM)

O=C(C=Cc1cccc(S(=O)(=O)Nc2ccccc2)c1)NO + NC1CCC(NC2CC2c2ccccc2)CC1
158 nM: IC50 (second compound 10 µM)
inactive: viability, T/C [21] 109% | viability, T/C [22] 103% | viability, T/C [23] 89.3% | viability, T/C [24] 27% | viability, T/C [25] 12.8% | viability, T/C [26] 10.9% | viability, T/C [27] 103% | viability, T/C [28] 101% | viability, T/C [29] 87% | viability, T/C [30] 27.1% | viability, T/C [31] 13.9% | viability, T/C [32] 19.6% | viability, T/C [33] 103% | viability, T/C [34] 105% | viability, T/C [35] 77.3% | viability, T/C [36] 27.3% | viability, T/C [39] 101% | viability, T/C [40] 106% | viability, T/C [41] 82.2% | viability, T/C [42] 29.8% | viability, T/C [45] 105% | viability, T/C [46] 99.3% | viability, T/C [47] 69.8% | viability, T/C [48] 26.6% | viability, T/C [49] 3.06% | viability, T/C [50] 19.4%
179 nM: IC50 (second compound 1 µM)
active: viability, T/C [37] 6.13% | viability, T/C [38] 0.61% | viability, T/C [43] 4.78% | viability, T/C [44] 0.3%
193 nM: IC50 (second compound 0.316 µM) | IC50 (second compound 3.16 µM)
196 nM: IC50 (second compound 0.1 µM)
